Read-outs that look alike come from different tables or passages of the source.
Legend:
plasma cytokines = experiment: Luminex (Milliplex MAP Human Cytokine/Chemokine Magnetic Bead Panel) testing of plasma specimens from Phase I cancer patients given CTO; format: in vivo; parameters: key to VEGF plasma level / IL-15 plasma level / IL-17A plasma level / IL-1RA plasma level / IL-2 plasma level / IL-4 plasma level / IL-6 plasma level / IL-8 plasma level / IP-10 plasma level / MIP1a plasma level / RANTES plasma level / EGF plasma level / **IL-1β plasma level (second entry of the list) / **TNFα plasma level / GM-CSF plasma level / IFNγ plasma level / IL-1β plasma level (first entry of the list) / IL-12p40 plasma level / IL-12p70 plasma level / IL-13 plasma level: + increased; − decreased
Method: In a Phase I trial of CTO testing the safety and tolerability of CTO in cancer patients, Plasa samples were obtained from three patients after administration of different doses of CTO daily as follows: 1) NSCLC Patient 002-46 (CTO 555 mg/m2), 2) NSCLC Patient 002-50 (CTO 427 mg/m2) and 3) Ovarian Cancer Patient 002-53 (CTO 427 mg/m2) The levels of cytokines were measured by using the HCYTMAG-60K-PX30/Milliplex MAP Human Cytokine/Chemokine Magnetic Bead Panel from Milliplex, USA.
Table 1. Target Cytokines in Luminex Panel Testing of Plasma Specimens-Results
Expressed as Cytokine (+ increased) or (− decreased)

SARS-CoV-2 infection = format: in vivo; conditions: one patient, CTO 600 mg daily oral, on the second day
[1] = system: non-infected Vero E6 cells; conditions: read-out: EC 50 in non-infected Vero E6 cells; cell viability, Cell Titer Glo
SARS-CoV-2 = format: cell-based; conditions: Vero E6 cells
[2] = CTO 427-555 mg/m2 daily, three cancer patients, versus baseline
[3] = CTO doses ranging from 427 mg/m2 to 555 mg/m2

## NC(=O)c1nnn(Cc2cc(Cl)c(C(=O)c3ccc(Cl)cc3)c(Cl)c2)c1N.O=C(O)c1cc(=O)[nH]c(=O)[nH]1 [CTO]
Plasma cytokines; [2]
  **IL-1β plasma level (second entry of the list): −
  **TNFα plasma level: −
  EGF plasma level: +
  GM-CSF plasma level: −
  IFNα2 plasma level: —I—
  IFNγ plasma level: −
  IL-1RA plasma level: −
  IL-1β plasma level (first entry of the list): +
  IL-2 plasma level: −
  IL-4 plasma level: −
  IL-6 plasma level: −
  IL-8 plasma level: −
  IL-12p40 plasma level: +
  IL-12p70 plasma level: −
  IL-13 plasma level: −
  IL-15 plasma level: −
  IL-17A plasma level: −
  IP-10 plasma level: −
  MIP1a plasma level: −
  RANTES plasma level: +
  VEGF plasma level: −
Plasma cytokines; [3]
  levels of cytokines including EGF, IFN α2, IL-1β, IL-12p40: increase
  levels of several cytokines including VEGF, GM-CSF, INF-γ, IL-2, IL-12p70, IL-13, IL-15, IL-17a, IL-1RA, IL-1α, IL-2, ILl-4, IL-6, IL-8, il-10, MIP1-α. IL-1 TNF-α: reduction
SARS-CoV-2 infection
  symptoms of SARS-CoV-2 infection: great improvement in most of the symptoms
SARS-CoV-2 infection; had lost twelve pounds within 14 days before
  body weight: remained at constant weight
[1]
  EC50: 14.9 µM
SARS-CoV-2; 72 hours post-inoculation, read-out: IC50, CPE assay (highest dose tested)
  IC50: > 20 µM
SARS-CoV-2; CTO up to 5 μM
  replication of SARS-CoV-2: inhibited
SARS-CoV-2; FIG. 2, read-out: IC50, cytopathic effect (CPE) for SARS-CoV-2
  IC50: > 20 µM
SARS-CoV-2; recorded <20 μM concentration
  Maximum % Inhibition, CPE for SARS-CoV-2: 29.03%
